How the values were obtained:
[1] = Binding affinity to human PCFT expressed in Chinese hamster R2/PCFT4 cells assessed as antiproliferative activity measured as reduction in cell growth after 96 hrs by Cell-Titer Blue assay
[2] = Binding affinity to human FRalpha expressed in Chinese hamster RT16 cells assessed as antiproliferative activity measured as reduction in cell growth after 96 hrs by Cell-Titer Blue assay
[3] = Binding affinity to human FRbeta expressed in Chinese hamster D4 cells assessed as antiproliferative activity measured as reduction in cell growth after 96 hrs by Cell-Titer Blue assay
[4] = Binding affinity to human RFC2 expressed in human HeLa R1-11 cells assessed as antiproliferative activity measured as reduction in cell growth after 96 hrs by Cell-Titer Blue assay
[5] = Binding affinity to human PCFT4 expressed in human HeLa R1-11 cells assessed as antiproliferative activity measured as reduction in cell growth after 96 hrs by Cell-Titer Blue assay
[6] = Binding affinity to human RFC expressed in Chinese hamster PC43-10 cells assessed as antiproliferative activity measured as reduction in cell growth after 96 hrs by Cell-Titer Blue assay
[7] = biological target: Folate receptor alpha (Homo sapiens) (UniProt P15328); test: Binding affinity to human FRalpha expressed in human HeLa R1-11-FR2 cells assessed as antiproliferative activity measured as reduction in cell growth after 96 hrs by Cell-Titer Blue assay
Folate receptor alpha (Homo sapiens), sequence (P15328 whole entry, looked up): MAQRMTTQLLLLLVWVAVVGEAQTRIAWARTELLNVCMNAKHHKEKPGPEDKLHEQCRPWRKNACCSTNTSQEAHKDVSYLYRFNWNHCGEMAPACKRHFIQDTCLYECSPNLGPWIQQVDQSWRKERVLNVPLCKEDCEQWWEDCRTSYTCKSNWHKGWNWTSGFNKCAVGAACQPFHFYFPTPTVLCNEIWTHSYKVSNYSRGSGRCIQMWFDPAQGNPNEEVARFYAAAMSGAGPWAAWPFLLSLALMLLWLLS

Compound | IC50 [1] | IC50 [2] | IC50 [3] | IC50 [4] | IC50 [5] | IC50 [6] | IC50 [7]
Nc1nc2[nH]c(CCCCc3ccc(C(=O)N[C@@H](CCC(=O)O)C(=O)O)cc3F)cc2c(=O)[nH]1 | 207 nM | 1.4 nM | 0.93 nM | – | – | – | –
Nc1nc2[nH]c(CCCc3ccc(C(=O)N[C@@H](CCC(=O)O)C(=O)O)c(F)c3)cc2c(=O)[nH]1 | 3.8 nM | – | 3.9 nM | 507 nM | 5.5 nM | 62 nM | 5.2 nM
Nc1nc2[nH]c(CCCc3ccc(C(=O)N[C@@H](CCC(=O)O)C(=O)O)cc3)cc2c(=O)[nH]1 [(S)-2-(4-(3-(2-amino-4-oxo-4,7-dihydro-3H-pyrrolo[2,3-d]pyrimidin-6-yl)propyl)benzamido)pentanedioic acid] | – | – | – | > 1000 nM | 9.7 nM | 304 nM | –
Nc1nc2[nH]c(CCCCc3csc(C(=O)N[C@@H](CCC(=O)O)C(=O)O)c3F)cc2c(=O)[nH]1 | 6 nM | – | – | 213 nM | 5 nM | > 1000 nM | –
Nc1nc2[nH]c(CCCc3csc(C(=O)N[C@@H](CCC(=O)O)C(=O)O)c3)cc2c(=O)[nH]1 | – | – | – | 63 nM | 40 nM | – | –
Nc1nc2[nH]c(CCCc3csc(C(=O)N[C@@H](CCC(=O)O)C(=O)O)c3F)cc2c(=O)[nH]1 | 1.5 nM | 0.14 nM | 0.19 nM | 66 nM | – | – | 3.1 nM
Nc1nc2[nH]c(CCCc3ccc(C(=O)N[C@@H](CCC(=O)O)C(=O)O)s3)cc2c(=O)[nH]1 | – | – | – | 444 nM | – | 106 nM | –
Nc1nc2[nH]c(CCCCc3ccc(C(=O)N[C@@H](CCC(=O)O)C(=O)O)cc3)cc2c(=O)[nH]1 [N-{4-[4-(2-Amino-4-oxo-4,7-dihydro-3H-pyrrolo[2,3-d]pyrimidin-6-yl)butyl]benzoyl}-L-glutamic Acid] | – | – | – | > 1000 nM | – | > 1000 nM | –
Nc1nc2[nH]c(CCCCc3csc(C(=O)N[C@@H](CCC(=O)O)C(=O)O)c3)cc2c(=O)[nH]1 | – | – | – | > 1000 nM | 73 nM | > 1000 nM | –
Nc1nc2[nH]c(CCCCc3ccc(C(=O)N[C@@H](CCC(=O)O)C(=O)O)nc3)cc2c(=O)[nH]1 | – | – | – | 634 nM | 9 nM | > 1000 nM | –

From BindingDB's records for doi:10.1021/acs.jmedchem.8b00408 (Duquesne University, 2018)
